Measurements: patent US10036033B2, “Method of inhibiting sprouting in plant tissues” (Academia Sinica, priority 2014, dated 2018)

T1: VP1 (Zea mays, UniProt P26307)
T1 sequence (P26307 1-691): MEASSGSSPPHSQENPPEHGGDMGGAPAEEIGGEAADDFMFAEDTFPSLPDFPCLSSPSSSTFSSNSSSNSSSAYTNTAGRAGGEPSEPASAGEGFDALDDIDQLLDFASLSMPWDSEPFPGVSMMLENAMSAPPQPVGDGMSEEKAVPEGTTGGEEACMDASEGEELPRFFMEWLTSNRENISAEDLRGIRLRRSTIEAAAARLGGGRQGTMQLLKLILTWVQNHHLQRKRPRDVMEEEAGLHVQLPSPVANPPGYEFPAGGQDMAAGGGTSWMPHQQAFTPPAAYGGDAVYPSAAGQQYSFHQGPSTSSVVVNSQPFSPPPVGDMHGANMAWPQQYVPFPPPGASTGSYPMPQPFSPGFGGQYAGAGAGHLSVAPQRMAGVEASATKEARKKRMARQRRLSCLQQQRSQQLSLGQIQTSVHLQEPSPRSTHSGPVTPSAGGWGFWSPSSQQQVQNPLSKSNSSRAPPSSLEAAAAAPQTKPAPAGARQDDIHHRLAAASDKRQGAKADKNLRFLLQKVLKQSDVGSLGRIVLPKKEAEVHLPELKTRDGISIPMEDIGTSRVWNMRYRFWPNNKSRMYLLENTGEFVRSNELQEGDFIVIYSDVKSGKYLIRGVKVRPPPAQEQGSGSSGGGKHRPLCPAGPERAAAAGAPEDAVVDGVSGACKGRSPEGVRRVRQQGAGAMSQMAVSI


How the values were obtained:
[1] = system: ABA induced gene expression (ABRC1-GUS) in rice aleurone cells; assay: ABRC1-GUS reporter expression assay in transgenic rice embryoless half-seeds (aleurone cells); type: cell-based, rice (Oryza sativa); settings: wild type rice aleurone cells; 20 μM ABA, 24 h
Procedure: FIG. 1. FCA-overexpression enhances and FCA-RNAi suppresses ABA induced gene expression in rice aleurone cells. The reporter construct (A) ABRC1-GUS was bombarded into (B) FCA-overexpression and (C) FCA-RNAi transgenic rice embryoless half-seeds. Bars indicate GUS activities ±SE after 24 h of incubation of bombarded seeds in shooting buffer with or without 20 μM ABA.
Rice (Oryza sativa) cultivar Tainung 67 was used in this study. Rice seedlings were grown in Kimura B nutrient solution at 28° C., 16L/8D photoperiod. Barley seeds (Hordeum vulgare L. cv. Himalaya) were used in all the transient assays. Embryoless half-seeds were prepared as described (Gomez-Cadenas et al., 2001).
Rice FCA cDNA clones (GenBank Accession Numbers AK073225 and AK058419) were supplied by Rice Genome Resource Center (RGRC) of National Institute of Agricultural Sciences (NIAS). Coding region of rice FCA was amplified from FCA cDNA clone by PCR. Coding region of barley FCA was amplified from total RNA of barley seed by RT-PCR. For underexpression of FCA, nucleotide number 307-822 of rice FCA ORF and nucleotide number 1532-1945 of barley FCA ORF were amplified. All PCR products were T/A cloned into pCR8/GW/TOPO vector (Invitrogen). Sequences and orientations of inserts in vector were confirmed by sequencing. […]

[2] = system: ABA induced gene expression (ABRC1-GUS) in barley aleurone cells; assay: Transient expression assay, ABRC1-GUS reporter, barley aleurone cells; type: cell-based, barley (Hordeum vulgare); settings: 20 μM ABA, 24 h
Text: FIG. 2. FCA alters ABA but not GA pathway in barley aleurone cells. (A) Schemes of the reporter and effector constructs used in transient expression assays. (B) FCA-overexpression enhances and (D) FCA-RNAi suppresses ABA induced gene expression in barley aleurone cells. (C and E) GA induced gene expression is not affected. The reporter construct ABRC1-GUS or Amy32b-GUS was cobombarded into barley embryoless half-seeds with (+) or without (−) effector constructs Ubi-HvFCA-RNAi or Ubi-HvFCA. Bars indicate GUS activities ±SE after 24 h of incubation of bombarded embryoless half-seeds in shooting buffer with or without 20 μM ABA or 1 μM GA.
FIG. 9. FCA-overexpression enhances ABA induced gene expression in barley aleurone cells. (A) Schemes of the reporter and effector constructs used in transient expression assays. (B) The reporter construct ABRC1-GUS was cobombarded into barley embryoless half-seeds with (+) or without (−) effector constructs Ubi-HvFCA or Ubi-OsFCA. Bars indicate GUS activities ±SE after 24 h of incubation of bombarded embryoless half-seeds in shooting buffer with (+) or without (−) 10 μM ABA.
Rice (Oryza sativa) cultivar Tainung 67 was used in this study. Rice seedlings were grown in Kimura B nutrient solution at 28° C., 16L/8D photoperiod. Barley seeds (Hordeum vulgare L. cv. Himalaya) were used in all the transient assays. […]

VP1 = target: T1, VP1; assay: In planta two-hybrid study; type: binding
ABI5 = assay: In planta two-hybrid study; type: binding

Row | Interaction with VP1 (VP1) | Molecule | ABRC1-GUS reporter induction by ABA treatment [1] | ABRC1-GUS reporter induction by ABA treatment [2] | Interaction with ABI5 (ABI5)
1 | – | CC1=CC(=O)CC(C)(C)C1(O)/C=C/C(C)=C\C(=O)O (stereo not shown) [ABA] | highly induced | highly induced | –
2 | interacts with VP1 | OsFCA: Rice FCA protein, nuclear RNA-binding protein, SEQ ID NO: 1 (protein, listed as Oryza sativa) MHRGGDRSTDPSSGPAPGSRGGGDGRFGRGPSRWSSGGGGGGSGSPPHRFSRGGGGGGGDGGGGGGGGGRFHPYRGPSDHSGGGGYRSGGGGEYGEPGSGPRHRYGSGRGDHSDHDNRNNYVKLFIGSVPRTATEDDVRPLFEEHGDVVEVALIKDRKTGEQQGCCFVKYATSEEAERAIRALHNQYTLPGAMGPIQVRYADGERERHGAIEHKLFVASLNKQATAKEIEEIFAPYGHVEDVYIMKDGMRQSRGCGFVKFSSREPALAAMSALSGNYVMRGCEQPLIIRFADPKRPRPGGSRGGPAFGGPGFSPRSDAALVIRPTANLDEPRGRHMPPDSWHPSSPRSAPHQFNNFGSDNPMAPKGSTVTSTTDTATFRPQMFSGNGSLSSQTAVPSSSHMGMNPPPMAQGHHLGGQQIPPLQKLPGLPQNFPVQLQNNQLGQPLQGPAQQIGQLQVPQSMGPGSFGQNRLSGQLPVSQPLMQQNASVSAVQVPSAVSNSMQAIPGQQHLPSNVAPQMLQQPVQQMPSQAPQLLLQQQAALQSSYQSSQQAIYQLQQQLQLMQQQQQSNLNHQQPTQGQPVQSSNPGAPNAIIPSNINTIPQQATSPAVPLTCNWTEHTSPEGFKYYYNSITRESKWDKPEEYVLYEQQQQQQQQQKLLLLQQHKQKLAMQQLQSPPQAQTHPAMQPVQQIPQAQQGQQQMQMKQQELNYTQLQTPGAIDPSRIQQGIQSAQERAWKS | – | – | not with ABI5 directly
